Measured values taken from patent US20100099710A1, “SRC FAMILY KINASE INHIBITORS” (priority 2007, published 2010).

Experiments:
[1] = system: Collagen induced arthritis; assay: Collagen induced arthritis (CIA), mice; assay type: in vivo; details: 3 mg/kg p.o.
Procedure: (§1) Collagen induced arthritis is a commonly used and widely accepted arthritis model. Immunologically, the model is dominated by a Th1 response; it is antigen specific and depends on both the B- and T-cell response. This model is responsive to most therapies effective in rheumatoid arthritis in humans except NSAIDs.
In order to induce arthritis, the mice were immunised intradermally (i.d.) at the base of the tail with 100 μl of CII emulsion (2 mg/ml) in FCA (2 mg/ml of M. tuberculosis). The mice were re-immunised i.d. 21 days later with 100 μl of CII emulsion (1 mg/ml) in FIA. The test compound was administrated once daily from the initiation of treatment to the day before the end of the experiment.
(§2) Starting from 21 days after the induction of CIA, the mice were weighed twice a week and the inflammation of the four paws was graded from 0 to 4: • 0: Normal • 1: Swelling of 1-2 toe joints or swelling of metatarsus/metacarpus without swelling of toe joints. • 2: Swelling of >2 toe joints or swelling of toe joints and metatarsus/metacarpus • 3: Severe swelling of the paw including metatarsus/metacarpus • 4: Very severe swelling of the paw resulting in chapped skin. The animals are euthanised. The sum of the scores from the four paws is reported as the arthritis score for each mouse. The maximum score obtainable is therefore 16.
(§3) The area under curve (AUC) of the arthritis score was calculated for all mice and used as a disease index. The treatment effect (inhibitory effect) of the compounds is calculated as:
(§4) 1−(AUCtreatment group)/(AUCvehicle group)
The medians of the AUC from all groups were compared using the Kruskal-Wallis test. When P<0.05 in the Kruskal-Wallis test, the Mann Whitney test was used to compare the AUCs for individual mice in drug treated groups with the AUC for mice in the control group which were treated with vehicle (significance level P<0.05).

[2] = system: Collagen induced arthritis; assay: Collagen induced arthritis (CIA), rats; assay type: in vivo; details: 5 mg/kg p.o.
Source text: as §1, §2, §3, §4
Lewis inbred rats (Harlan), 6 females per group, approximately 11 weeks old were immunised intradermally (i.d.) at the base of the tail with 200 μl of CII emulsion (1 mg/ml) in incomplete Freunds adjuvant (FIA). The rats were re-immunised 10 days later with 50 μl of CII emulsion (1 mg/ml) in FIA. From day 12 the inflammation of each paw was graded and calculated as described for the mouse model. The test-compound was administrated orally from day 10 or from day 14. The last day of treatment was the day before the end of the experiment.

[3] = Table 7, first experiment, printed treated from day 10
[4] = Table 7, first experiment, treated from day 10
[5] = Table 8, second experiment, treated from day 10
[6] = Table 8, second experiment, treated from day 14

## C[C@]12C=CC(=O)C=C1CC[C@@H]1[C@@H]2[C@@H](O)C[C@@]2(C)[C@H]1CC[C@]2(O)C(=O)CO [Prednisolone]
[1]; Table 5
  AUC of arthritis score, Average: 27
[1]; Table 5, vehicle day 10
  Percent of vehicle control (group 1): −84%
[1]; Table 6
  AUC of arthritis score, Average: 27
[1]; Table 6, vehicle day 28
  Percent of vehicle control (group 1): −78%
[2]; [3]
  AUC of arthritis score, Average: 9
  Percent of vehicle control (group 1): −74%
[2]; [4]
  AUC of arthritis score, Average: 0.2
  Percent of vehicle control (group 1): −100%
[2]; [5]
  AUC of arthritis score, Average: 0
  Percent of vehicle control (group 1): −−100%
[2]; [6]
  AUC of arthritis score, Average: 8
  Percent of vehicle control (group 1): −78%
